Reference: patent US9624211B2, “Anti-cancer compounds” (Board of Regents, The University of Texas System, priority 2013, dated 2017)

How the values were obtained:
H3299 (lung) = test: Cell survival assay, H3299; assay type: cell-based, human
Description: (§1) For Skp2 inhibitor administration, 5-10×10^3 of cells with were seeded in 12 wells in triplicate, 24 h later, treated with compound #25 (refreshed every two days). Four days later, cells were harvested, stained with trypan blue, and viable cells were counted directly under the microscope using hemocytometer. For doxorubicin treatment, 8×10^3 of PC3 cells with were seeded in 12 wells in triplicate, 24 h later, treated with various dose of compound #25 in the presence or absence of 10 nM doxorubicin or 25 ng/ml cyclophosphamide for four and three days, respectively (refreshed every two days). After treatment, cells were harvested, stained with trypan blue, and viable cells were counted directly under the microscope using hemocytometer. Cellular senescence was determined by assessing SA-b-gal activity using senescence detection kit according to manufacturers' standard procedures (Calbiochem).

Hep3B (liver) = test: Cell survival assay, Hep3B; assay type: cell-based, human
Description: as §1

PC3 cells = test: Cell cycle by PI staining and flow cytometry; assay type: cell-based, human; conditions: PC3 cells treated for 2 days
Description: FIGS. 12A-D. Skp2 inhibitor triggers cell growth suppression and cell cycle arrest at G2/M phase, related to FIG. 4. (FIG. 12A) The impact of Skp2 inhibitor on growth suppression in various cell lines. A panel of cancer cell lines were treated with various doses of Skp2 inhibitor (#25) for 4 days, and viable cell numbers were counted using hemocytometer. Growth inhibition (IC50) by compound #25 was derived from the cell counting using hemocytometer. (FIG. 12B) PC3 cells were treated with or without compound #25 for 2 days and cell cycle were determined by PI staining, followed by flow cytometry analysis. G1 phase=61.3±0.3%, S phase=15.6±0.6% and G2/M phase=20.3±0.3% in DMSO-treated PC3 cells while G1 phase=50.1±0.9%, S phase=13.3±0.8% and G2/M phase=24.5±0.3% in #25-treated PC3 cells. (FIG. 12C) Control- or Skp2-knockdown PC3 cells were treated with or without compound #25 for 2 days and cell cycle were determined by PI staining, followed by flow cytometry analysis. Two clones of Skp2 shRNA were used in this assay. G1 phase=53.1±0.8% and S phase=15.9±0.9% and G2/M phase=26.1±0.6% in control-knockdown PC3 cells, G1 phase=49.5±0.4%, S phase=13.6±0.7% and G2/M phase=29.1±0.5% in one clone of Skp2-silenced PC3 cells, G1 phase=54.5±1.6%, S phase=10.6±0.4% and G2/M phase=28.8±0.2% in another clone of Skp2-silenced PC3 cells. (FIG. 12D) WT or Skp2−/− MEFs were treated with or without compound #25 for 2 days, and cell cycle was determined by PI staining, followed by flow cytometry analysis. G1 phase=50.5±4.6%, S phase=9.1±0.6% and G2/M phase=27.8±0.9% in WT MEFs while G1 phase=27.7±1.3%, S phase=8.2±1.9% and G2/M phase=39.0±1.6% in Skp2−/− MEFs. Results are presented as mean values ±S.D. * indicates p<0.05, ** indicates p<0.01. Results from treatment groups were compared to vehicle-treated group.

U2OS (osteocarcinoma) = test: Cell survival assay, U2OS; assay type: cell-based, human
Description: as §1

[1] = test system: p27 and p21 protein expression; test: Immunoblotting of SCF substrates in prostate cancer cells; assay type: cell-based
Source text: Cells were lysed with RIPA buffer in the presence of protease inhibitor cocktail (Roche). The following antibodies were used for immunoblotting analysis: anti-Skp2 (Invitrogen), anti-Xpress (Invitrogen), anti-p27 (BD transduction laboratories), anti-p21 (Santa Cruz), anti-β-actin (Sigma), anti-α-tubulin (Sigma), anti-phospho-Akt (Thr308) (Cell Signaling), anti-phospho-Akt (Ser473) (Cell Signaling), and anti-HA (Convance). For immunohistochemistry, tissues were fixed in 10% formalin and embedded in paraffin in accordance with standard procedures. Sections were stained with anti-Skp2 (Invitrogen), anti-p27 (Epitomics), anti-phosphoAkt (SerS473) (Cell signaling), anti-Glut1 (Abcam), and anti-Ki67 (Abcam). TUNEL staining was performed by using in situ cell death detection kit-POD (Roche).

WT Skp2 = molecular target: T1, WT Skp2 (Homo sapiens, UniProt Q13309); test: In vitro binding of compound to GST-Skp2 by LC-MS/MS; conditions: preexisting Skp2-Skp1 complex
T1 construct: made in house
Description: To corroborate this notion, the in vitro binding assay was performed to compare the binding affinity of compound #25 to WT Skp2 and Skp2 mutants (Trp97Ala and Asp98Ala) using LC-MS/MS analysis. Of note, since the nature of recombinant Skp2 protein was unstable in the absence of Skp1 (Li et al., 2005), the GST-Skp2 WT, GST-Skp2 Trp97Ala and GST-Skp2Asp98Ala mutants subjected to LC-MS/MS analysis were co-expressed, purified and preformed complex with Skp1 (FIG. 10A).

PC-3 cells = test: Cell survival assay, PC-3; assay type: cell-based, human
Description: as §1

H3255 (lung) = test: Cell survival assay, H3255; assay type: cell-based, human
Description: as §1

β-TRCP = test: In vivo ubiquitination assay, β-TRCP substrates; assay type: cell-based; conditions: in the presence of proteasome inhibitor
Description: In vivo and in vitro ubiquitination assays were performed as described with modification (Lin et al., 2009; Yang et al., 2009). For in vitro ubiquitination assay, recombinant GST-Akt proteins were expressed, purified and eluted from the bacterial lysates of BL21 competent cells. Flag-Skp2 SCF complex were expressed in 293T cells, immunoprecipitated by anti-Flag antibody, and eluted from Protein A/G beads using Flag peptides according to manufacturers' standard procedures. Purified GST-Akt and Flag-SCF proteins were incubated for 3 h at 37° C. in the absence and presence of Skp2 inhibitor. After incubation, protein mixtures were diluted in E1A Buffer and the supernatant fluid was precleared with Protein A/G beads for 1 h, and immunoprecipitated overnight with anti-Flag antibody, after which Protein A/G beads were added for an additional 1 h. Beads were washed 4 times with E1A Buffer. Proteins were eluted in SDS-sample buffer and subjected to immunoblotting analysis. For in vivo ubiquitination assay, 293T cells were transfected with the indicated plasmids and cultured in the absence or presence of Skp2 inhibitor for 48 h. 6 h before harvest, cells were cultured in the presence of MG132. After cell harvest, cells were lysed by the denatured buffer (6M guanidine-HCl, 0.1M Na2HPO4/NaH2PO4, 10 mM imidazole). […]

ERK activation = ERK activation after EGF, immunoblotting; assay type: cell-based

T1 sequence (Q13309 whole entry): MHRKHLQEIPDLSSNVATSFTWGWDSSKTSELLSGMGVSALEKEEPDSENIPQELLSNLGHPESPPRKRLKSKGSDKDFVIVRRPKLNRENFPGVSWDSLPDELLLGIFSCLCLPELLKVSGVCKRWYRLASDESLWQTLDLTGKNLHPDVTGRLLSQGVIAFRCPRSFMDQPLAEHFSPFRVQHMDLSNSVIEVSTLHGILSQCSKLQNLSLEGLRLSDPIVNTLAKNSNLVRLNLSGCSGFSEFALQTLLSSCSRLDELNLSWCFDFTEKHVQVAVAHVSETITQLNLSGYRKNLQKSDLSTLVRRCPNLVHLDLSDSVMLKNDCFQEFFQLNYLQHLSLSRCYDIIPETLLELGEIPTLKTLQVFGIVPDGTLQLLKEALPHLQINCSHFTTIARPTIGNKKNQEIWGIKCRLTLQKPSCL

For `CCc1cc2c(=O)c(-c3nc4ccccc4s3)coc2c(CN2CCCCC2)c1O` [compound #25, 3-(1,3-benzothiazol-2-yl)-6-ethyl-7-hydroxy-8-(1-piperidinylmethyl)-4H-chromen-4-one], the cell viability (H3299 (lung)) was “potent suppressive effect on viability”, the cell viability (Hep3B (liver)) was “potent suppressive effect on viability” and the G1 phase (PC3 cells) was 50.1±0.9%. For the same compound, the G2/M phase (PC3 cells) was 24.5±0.3%, the S phase (PC3 cells) was 13.3±0.8% and the cell viability (U2OS (osteocarcinoma)) was “potent suppressive effect on viability”. The “stabilization/induction of SCF substrates” value ([1]; Skp2, Fbw7 and β-TrCP substrates, FIGS. 3E and 11A) was “selectively stabilized Skp2 substrates”, the “endogenous p27 and p21 protein expression” value ([1]; prostate cancer cells) was “induced endogenous p27 and p21 protein expression” and the “binding to WT Skp2” value (WT Skp2) was “readily bound”. The cell viability (PC-3 cells; PC-3) was “potent effects on cell viability”, the “viability upon Skp2 silencing” value (PC-3 cells; Skp2-knockdown prostate cancer cells) was “inhibitory effect is compromised” and the “viability of control-knockdown cells” value (PC-3 cells; control-knockdown prostate cancer cells) was “potent inhibitory effect”. For the same compound, the “cell viability with ectopic Skp2 Trp97Ala or Asp98Ala” value (PC-3 cells; ectopic expression of Skp2 mutants) was “attenuated the inhibitory effect”, the cell viability (H3255 (lung)) was “potent suppressive effect on viability” and the “β-TRCP-mediated ubiquitination (β-catenin, Snail, IκBα)” value (β-TRCP) was “no appreciable effect”. The ERK activation (ERK activation) was “no noticeable impact”.
